Ends that are not written are not given here.
Key:
Test in all cases: Spot test of partially purified bacteriocins on strains grown on agar
Staphylococcus = system: Staphylococcus
Clostridia spores = format: cell-based, Clostridium
Brochothrix = system: Brochothrix
Streptococcus = system: Streptococcus
[1] = system: Clostridia vegetative cells; format: cell-based, Clostridium
Lactococcus = system: Lactococcus
Leuconostoc = system: Leuconostoc
G negative strains = format: cell-based
[2] = system: Bacillus vegetative cells; format: cell-based
Carnobacteria = system: Carnobacteria
Listeria = system: Listeria
Lactobacillus = system: Lactobacillus
Enterococcus = system: Enterococcus
Pediococcus = system: Pediococcus
Bacillus spores = format: cell-based

Substance | Number of strains inhibited/Number of strains tested (Staphylococcus; 1AU (10 μl/spot of 100 AU/ml)) | Number of strains inhibited/Number of strains tested (Staphylococcus; 8AU (10 μl/spot of 800 AU/ml)) | Number of strains inhibited/Number of strains tested (Clostridia spores; 1AU (10 μl/spot of 100 AU/ml)) | Number of strains inhibited/Number of strains tested (Clostridia spores; 8AU (10 μl/spot of 800 AU/ml)) | Number of strains inhibited/Number of strains tested (Brochothrix; 1AU (10 μl/spot of 100 AU/ml)) | Number of strains inhibited/Number of strains tested (Brochothrix; 8AU (10 μl/spot of 800 AU/ml)) | Number of strains inhibited/Number of strains tested (Streptococcus; 1AU (10 μl/spot of 100 AU/ml)) | Number of strains inhibited/Number of strains tested (Streptococcus; 8AU (10 μl/spot of 800 AU/ml)) | Number of strains inhibited/Number of strains tested ([1]; 1AU (10 μl/spot of 100 AU/ml)) | Number of strains inhibited/Number of strains tested ([1]; 8AU (10 μl/spot of 800 AU/ml)) | Number of strains inhibited/Number of strains tested (Lactococcus; 1AU (10 μl/spot of 100 AU/ml)) | Number of strains inhibited/Number of strains tested (Lactococcus; 8AU (10 μl/spot of 800 AU/ml)) | Number of strains inhibited/Number of strains tested (Leuconostoc; 1AU (10 μl/spot of 100 AU/ml)) | Number of strains inhibited/Number of strains tested (Leuconostoc; 8AU (10 μl/spot of 800 AU/ml)) | Number of strains inhibited/Number of strains tested (G negative strains; 1AU (10 μl/spot of 100 AU/ml)) | Number of strains inhibited/Number of strains tested (G negative strains; 8AU (10 μl/spot of 800 AU/ml)) | Number of strains inhibited/Number of strains tested ([2]; 1AU (10 μl/spot of 100 AU/ml)) | Number of strains inhibited/Number of strains tested ([2]; 8AU (10 μl/spot of 800 AU/ml)) | Number of strains inhibited/Number of strains tested (Carnobacteria; 1AU (10 μl/spot of 100 AU/ml)) | Number of strains inhibited/Number of strains tested (Carnobacteria; 8AU (10 μl/spot of 800 AU/ml)) | other results
Pedi PA-1: pediocin PA-1, a bacteriocin from Pediococcus acidilactici PAC1.0 (KYYGNGVTCGKHSCSVDWGKATTCIINNGAMAWATGGHQGNHKC; ends and bridges not checked; cysteine pairing not given here; UniProt P29430 19-62, looked up) | 0/7 | 1/7 | 0/7 | 0/7 | 0/14 | 0/14 | 0/3 | 0/3 | 0/8 | 0/8 | 0/8 | 0/8 | 4/9 | 5/9 | 0/29 | 0/29 | 2/5 | 2/5 | 7/19 | 7/19 | Number of strains inhibited/Number of strains tested (Listeria; 1AU (10 μl/spot of 100 AU/ml)): 39/42; Number of strains inhibited/Number of strains tested (Listeria; 8AU (10 μl/spot of 800 AU/ml)): 40/42; Number of strains inhibited/Number of strains tested (Lactobacillus; 1AU (10 μl/spot of 100 AU/ml)): 1/17; Number of strains inhibited/Number of strains tested (Lactobacillus; 8AU (10 μl/spot of 800 AU/ml)): 2/17; Number of strains inhibited/Number of strains tested (Enterococcus; 1AU (10 μl/spot of 100 AU/ml)): 7/14; Number of strains inhibited/Number of strains tested (Enterococcus; 8AU (10 μl/spot of 800 AU/ml)): 11/14; Number of strains inhibited/Number of strains tested (Pediococcus; 1AU (10 μl/spot of 100 AU/ml)): 0/3; Number of strains inhibited/Number of strains tested (Pediococcus; 8AU (10 μl/spot of 800 AU/ml)): 2/3; Number of strains inhibited/Number of strains tested (Bacillus spores; 1AU (10 μl/spot of 100 AU/ml)): 0/5; Number of strains inhibited/Number of strains tested (Bacillus spores; 8AU (10 μl/spot of 800 AU/ml)): 0/5
cbn A | 0/7 | 1/7 | 0/7 | 0/7 | 0/14 | 0/14 | 0/3 | 0/3 | 0/8 | 0/8 | 0/8 | 0/8 | 1/9 | 1/9 | 0/29 | 0/29 | 2/5 | 2/5 | 0/14 | 0/14 | Number of strains inhibited/Number of strains tested (Listeria; 1AU (10 μl/spot of 100 AU/ml)): 4/42; Number of strains inhibited/Number of strains tested (Listeria; 8AU (10 μl/spot of 800 AU/ml)): 21/42; Number of strains inhibited/Number of strains tested (Lactobacillus; 1AU (10 μl/spot of 100 AU/ml)): 0/17; Number of strains inhibited/Number of strains tested (Lactobacillus; 8AU (10 μl/spot of 800 AU/ml)): 1/17; Number of strains inhibited/Number of strains tested (Enterococcus; 1AU (10 μl/spot of 100 AU/ml)): 2/14; Number of strains inhibited/Number of strains tested (Enterococcus; 8AU (10 μl/spot of 800 AU/ml)): 2/14; Number of strains inhibited/Number of strains tested (Pediococcus; 1AU (10 μl/spot of 100 AU/ml)): 0/3; Number of strains inhibited/Number of strains tested (Pediococcus; 8AU (10 μl/spot of 800 AU/ml)): 0/3; Number of strains inhibited/Number of strains tested (Bacillus spores; 1AU (10 μl/spot of 100 AU/ml)): 0/5; Number of strains inhibited/Number of strains tested (Bacillus spores; 8AU (10 μl/spot of 800 AU/ml)): 0/5

— US6403082B1, “Bacteriocins, transport and vector system and method of use thereof” (priority 1996, dated 2002)
